Assay results published in paper PMC12101465, “Synthesis and anti-mycobacterial activity of novel medium-chain β-lactone derivatives: a multi-target strategy to combat Mycobacterium abscessus” (RSC Medicinal Chemistry, 2025).
In brackets after ≈: the same amount, converted by molar mass.

Experiment: in vitro
Set-up: resazurin reduction viability assay, fluorescence, cytotoxicity on murine macrophages
Details: mouse, raw macrophages; read-out: CC50 (µg/mL) Raw264.7
Protocol: The cytotoxicity of the new synthesized β-lactone analogs against eukaryotic cells was measured based on the reduction of resazurin as a value of cellular viability by metabolic activity, as previously described.[45,54,55] Murine (Raw264.7) macrophages (American Type Culture Collection TIB-71) were incubated with two-fold dilution of each compound for 24 h at 37 °C and 5% CO2. Then, 20 μL of a 0.025% (w/v) resazurin solution was added to each well, and fluorescence was measured following a 4 h incubation as described above. The compound concentration leading to 50% macrophage cell death was defined as the CC50.[28,29,56] All experiments were performed as three independent biological replicates. See ESI ^† for detailed protocol. 3.5. Cell toxicity of beta-lactone derivatives

Compound	CC50 at 24 h
CCCCCCCCC1(F)C(=O)OC1CCC (mixture of isomers) [VM043, 3-Fluoro-3-octyl-4-propyloxetan-2-one]	> 125 µg/mL
CCCCCCCC/C=C\CCCCCC[C@@H]1C(=O)O[C@H]1CC (racemic) [VM017, (±)-trans (Z)-4-Ethyl-3-(hexadec-7-en-1-yl)oxetan-2-one]	> 125 µg/mL
CCCCCCCC/C=C\CCCCCC[C@@H]1C(=O)O[C@@H]1CC (racemic) [VM018, (±)-cis (Z)-4-Ethyl-3-(hexadec-7-en-1-yl)oxetan-2-one]	> 125 µg/mL
CCCCCC[C@@H]1C(=O)O[C@H]1CCC (racemic) [VM019, (±)-trans 3-Hexyl-4-propyloxetan-2-one]	> 125 µg/mL
CCCCCCCC/C=C\CCCCCC[C@@H]1C(=O)O[C@H]1CCCCCCCCC (racemic) [VM021, (±)-trans (Z)-3-(Hexadec-7-en-1-yl)-4-nonyloxetan-2-one]	> 125 µg/mL
CCCCCCCC/C=C\CCCCCC[C@@H]1C(=O)O[C@H]1CCCCCC (racemic) [VM022, (±)-trans (Z)-3-(Hexadec-7-en-1-yl)-4-hexyloxetan-2-one]	> 125 µg/mL
CCCCCCCC/C=C\CCCCCC[C@@H]1C(=O)O[C@@H]1CCCCCCCCC (racemic) [VM023, (±)-cis (Z)-3-(Hexadec-7-en-1-yl)-4-nonyloxetan-2-one]	> 125 µg/mL
CCCCCCCC/C=C\CCCCCC[C@@H]1C(=O)O[C@@H]1CCCCCC (racemic) [VM024, (±)-cis (Z)-3-(Hexadec-7-en-1-yl)-4-hexyloxetan-2-one]	> 125 µg/mL
CCCCCCCCCC[C@@H]1C(=O)O[C@H]1CCC (racemic) [VM026, (±)-trans 3-Decyl-4-propyloxetan-2-one]	> 125 µg/mL
CCCCCCCCCC[C@@H]1C(=O)O[C@@H]1CCC (racemic) [VM027, (±)-cis 3-Decyl-4-propyloxetan-2-one]	> 125 µg/mL
CCCCCCCC/C=C\CCCCCCCC[C@@H]1C(=O)O[C@H]1CCC (racemic) [VM029, (±)-trans (Z)-3-(Octadec-9-en-1-yl)-4-propyloxetan-2-one]	> 125 µg/mL
CCCCCCCC/C=C\CCCCCCCC[C@@H]1C(=O)O[C@@H]1CCC (racemic) [VM030, (±)-cis (Z)-3-(Octadec-9-en-1-yl)-4-propyloxetan-2-one]	> 125 µg/mL
CCCCCCCC/C=C\CCCCCCC[C@@H]1OC(=O)[C@H]1CCC (racemic) [VM036, (±)-trans 4-((Z)-Heptadec-8-en-1-yl)-3-propyloxetan-2-one]	> 125 µg/mL
CCCCCCCC/C=C\CCCCCCC[C@H]1OC(=O)[C@H]1CCC (racemic) [VM037, (±)-cis 4-((Z)-Heptadec-8-en-1-yl)-3-propyloxetan-2-one]	> 125 µg/mL
CCCCCCCC[C@@H]1C(=O)O[C@H]1CCC (racemic) [VM038, (±)-trans 3-Octyl-4-propyloxetan-2-one]	> 125 µg/mL
CCCCCCCC[C@@H]1C(=O)O[C@@H]1CCC (racemic) [VM039, (±)-cis 3-Octyl-4-propyloxetan-2-one]	119 ± 4 µg/mL (≈ 526 µM)
CCCCCCCCCCCC[C@@H]1C(=O)O[C@H]1CCC (racemic) [VM040, (±)-trans 3-Dodecyl-4-propyloxetan-2-one]	> 125 µg/mL
CCCCCCCCCCCC[C@@H]1C(=O)O[C@@H]1CCC (racemic) [VM041, (±)-cis 3-Dodecyl-4-propyloxetan-2-one]	> 125 µg/mL
C#CCCC[C@@H]1C(=O)O[C@H]1CCC (racemic) [VM050p, (±)-trans 3-(Pent-4-yn-1-yl)-4-propyloxetan-2-one]	44.1 ± 2.4 µg/mL (≈ 245 µM)

Compound	CC50 at 24 h
C#CCCCCCCC[C@@H]1C(=O)O[C@H]1CCC (racemic) [VM052p, (±)-trans 3-(Non-8-yn-1-yl)-4-propyloxetan-2-one]	> 125 µg/mL
C#CCCCCCC[C@@H]1C(=O)O[C@H]1CCC (racemic) [VM053p, (±)-trans 3-(Oct-7-yn-1-yl)-4-propyloxetan-2-one]	> 125 µg/mL
CCC[C@@H]1OC(=O)[C@H]1CCCCCCCCN=[N+]=[N-] (racemic) [VM055p, (±)-trans 3-(8-Azidooctyl)-4-propyloxetan-2-one]	> 125 µg/mL
CCCCCCCC[C@@H]1C(=O)N[C@H]1CCC (racemic) [VM057, (±)-trans 3-Octyl-4-propylazetidin-2-one]	52.7 ± 1.1 µg/mL (≈ 234 µM)
CCCCCCCCCCC1C(=O)OC1CCC (stereo not shown) [VM025, 3-Decyl-4-propyloxetan-2-one]	> 125 µg/mL
CCCCCCCC/C=C\CCCCCCCCC1C(=O)OC1CCC (stereo not shown) [VM028, (Z)-3-(Octadec-9-en-1-yl)-4-propyloxetan-2-one]	> 125 µg/mL
C#CCCC1OC(=O)C1CCCCCCCC/C=C\CCCCCCCC (stereo not shown) [VM035p, (Z)-4-(But-3-yn-1-yl)-3-(octadec-9-en-1-yl)oxetan-2-one]	> 125 µg/mL
CCCCCCCC/C=C\CCCCCCC1(F)C(=O)OC1CCC (stereo not shown) [VM042, (Z)-3-Fluoro-3-(hexadec-7-en-1-yl)-4-propyloxetan-2-one]	> 125 µg/mL
CCCCCCCCCCCCC1(F)C(=O)OC1CCC (stereo not shown) [VM044, 3-Dodecyl-3-fluoro-4-propyloxetan-2-one]	> 125 µg/mL
CCCCCCCCOCCCCCCCCC1C(=O)OC1CCC (stereo not shown) [VM045, 3-(8-(Octyloxy)octyl)-4-propyloxetan-2-one]	> 125 µg/mL
CCCCCCCCOCCCCCCCCC1(F)C(=O)OC1CCC (stereo not shown) [VM046, 3-Fluoro-3-(8-(octyloxy)octyl)-4-propyloxetan-2-one]	> 125 µg/mL
CCCCCCNC(=O)CCCCCCCC1C(=O)OC1CCC (stereo not shown) [VM047, N-Hexyl-8-(2-oxo-4-propyloxetan-3-yl)octanamide]	> 125 µg/mL
CCCCCCCC(=O)NCCCCCCC1C(=O)OC1CCC (stereo not shown) [VM048, N-(6-(2-Oxo-4-propyloxetan-3-yl)hexyl)octanamide]	> 125 µg/mL
C#CCCCC1C(=O)OC1CCC (stereo not shown) [VM049p, 3-(Pent-4-yn-1-yl)-4-propyloxetan-2-one]	68.1 ± 3.1 µg/mL (≈ 378 µM)
C#CCCCCCCCCCC1C(=O)OC1CCC (stereo not shown) [VM051p, 4-Propyl-3-(undec-10-yn-1-yl)oxetan-2-one]	> 125 µg/mL
C#CCCC1OC(=O)C1CCCCCCCCCCCC (stereo not shown) [VM054p, 4-(But-3-yn-1-yl)-3-dodecyloxetan-2-one]	> 125 µg/mL
CCCCCCCCCCCCC1C(=O)NC1CCC (stereo not shown) [VM056, 3-Dodecyl-4-propylazetidin-2-one]	30.6 ± 1.1 µg/mL (≈ 109 µM)
CCCCCCCCC1C(=O)NC1CCC (stereo not shown) [VM058, 3-Octyl-4-propylazetidin-2-one]	40.1 ± 0.6 µg/mL (≈ 178 µM)
